Where two headings read alike, the source gives them in different places.
Assays:
Test in all cases: biochemical
[1] = biological target: T1, MMP-1 (Homo sapiens, UniProt P03956); conditions: recombinant human MMP-1, MCA peptide substrate 4 μM, pH 7.5, room temperature; read-out: MMP-1 IC50
T1 construct: made in house; host or cells: transfected HT-1080 cells (provided by Dr. Harold Welgus, Washington University)
T1 sequence (P03956 100-469): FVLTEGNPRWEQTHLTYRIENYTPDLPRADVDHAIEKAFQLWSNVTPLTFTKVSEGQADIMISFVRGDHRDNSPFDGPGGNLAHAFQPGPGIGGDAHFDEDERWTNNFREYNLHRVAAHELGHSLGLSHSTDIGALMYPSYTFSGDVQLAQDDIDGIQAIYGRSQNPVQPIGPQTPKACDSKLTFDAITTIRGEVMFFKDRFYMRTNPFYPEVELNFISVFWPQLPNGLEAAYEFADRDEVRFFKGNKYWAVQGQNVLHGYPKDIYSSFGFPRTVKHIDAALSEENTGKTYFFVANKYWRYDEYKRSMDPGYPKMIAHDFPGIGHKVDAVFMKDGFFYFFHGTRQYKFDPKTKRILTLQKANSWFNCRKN
Outline: (§1)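 Assay buffer 100 mM Tris-HCl, 100 mM NaCl, 10 mM CaCl2, pH 7.5. Activated MMP + inhibitor, 5 min RT; then methoxycoumarin peptide substrate, 4 μM final. Readout fluorescence; IC50 calculated.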

[2] = biological target: T2, MMP-13 (Homo sapiens, UniProt P45452); conditions: recombinant human MMP-13, MCA peptide substrate 4 μM, pH 7.5, room temperature; read-out: MMP-13 IC50
T2 construct: made in house; host or cells: baculovirus / insect cells
Outline: as §1

[3] = biological target: T3, MMP-2 (Homo sapiens, UniProt P08253)
T3 construct: made in house; provided by Dr. Gregory Goldberg, Washington University
T3 sequence (P08253 110-660): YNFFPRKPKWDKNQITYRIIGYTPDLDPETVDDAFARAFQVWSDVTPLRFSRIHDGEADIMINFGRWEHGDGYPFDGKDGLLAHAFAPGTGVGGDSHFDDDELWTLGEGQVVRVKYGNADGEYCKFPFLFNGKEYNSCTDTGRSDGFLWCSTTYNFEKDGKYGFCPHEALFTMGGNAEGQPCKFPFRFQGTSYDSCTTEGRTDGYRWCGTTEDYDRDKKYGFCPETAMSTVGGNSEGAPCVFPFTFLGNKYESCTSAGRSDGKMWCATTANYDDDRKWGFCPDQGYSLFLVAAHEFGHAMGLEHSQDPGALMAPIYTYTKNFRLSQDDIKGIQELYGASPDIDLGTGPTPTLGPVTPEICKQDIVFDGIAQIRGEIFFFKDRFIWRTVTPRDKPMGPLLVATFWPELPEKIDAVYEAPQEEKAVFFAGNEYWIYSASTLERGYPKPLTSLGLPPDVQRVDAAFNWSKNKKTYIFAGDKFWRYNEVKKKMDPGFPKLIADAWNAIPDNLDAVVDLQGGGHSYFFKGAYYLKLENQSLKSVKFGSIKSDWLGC
Outline: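 APMA- or trypsin-activated enzymes were preincubated with inhibitor for 5 min at room temperature, then the fluorogenic substrate MCA-Pro-Leu-Gly-Leu-Dpa-Ala-Arg-NH2 was added to a final 4 μM.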

[4] = recombinant human MMP-2, MCA peptide substrate 4 μM, pH 7.5, room temperature, read-out: MMP-2 IC50

Row | Structure (SMILES) | IC50 [1] | IC50 [2] | IC50 [3, 4] | IC50 ([3]; MMP-2 IC50 (nM))
1 | O=C(NCC1CC1)C1CCN(c2ccc(S(=O)(=O)C3(C(=O)NO)CCOCC3)cc2)CC1 [Example 53] | > 10000 nM | 28.9 nM | 1400 nM | 
2 | CCCN(CCCCC(=O)N1CCC(C(=O)NO)(S(=O)(=O)c2ccc(Oc3ccc(C(F)(F)F)cc3)cc2)CC1)CC1CC1 [Example 346] | > 10000 nM | 1.2 nM | 0.2 nM | 
3 | CC1CN(c2ccc(S(=O)(=O)C3(C(=O)NO)CCOCC3)cc2)CCN1c1ccccc1 (stereo not drawn) [Example 487] | > 10000 nM | 140 nM | 800 nM | 
4 | O=C(NO)C1(S(=O)(=O)c2ccc(Oc3ccc(OC(F)(F)F)cc3)cc2)CCN(C2=NCCN2)CC1 [Example 413] | 8000 nM | 1.1 nM | 0.3 nM | 
5 | CN1CCN(CC(=O)N2CCC(C(=O)NO)(S(=O)(=O)c3ccc(Oc4ccc(C(F)(F)F)cc4)cc3)CC2)CC1 [Example 324] | > 10000 nM | 0.7 nM | 0.4 nM | 
6 | O=C(NO)C1(S(=O)(=O)c2ccc([C@H]3CC[C@H](c4ccccc4)CC3)cc2)CCOCC1 [Example 782] | > 10000 nM | 21.1 nM | 100 nM | 
7 | O=C(Nc1ccc(F)cc1F)N1CCC(C(=O)NO)(S(=O)(=O)c2ccc(Oc3ccc(OC(F)(F)F)cc3)cc2)CC1 [Example 363] | 8800 nM | 0.4 nM | 0.2 nM | 
8 | CCCC(=O)N1CCN(c2ccc(S(=O)(=O)C3(C(=O)NO)CCOCC3)cc2)CC1 [Example 590] | > 10000 nM | 121 nM | 80 nM | 
9 | CCOc1ccccc1C1CCN(c2ccc(S(=O)(=O)C3(C(=O)NO)CCOCC3)cc2)CC1 [Example 544] | > 10000 nM | 35 nM |  | 3100 nM
10 | O=C(CN1CCCC1)N1CCC(C(=O)NO)(S(=O)(=O)c2ccc(Oc3ccc(C(F)(F)F)cc3)cc2)CC1 [Example 326] | > 10000 nM | 0.6 nM | 0.45 nM | 
11 | Cc1ccc(C(=O)C2CCN(c3ccc(S(=O)(=O)C4(C(=O)NO)CCOCC4)cc3)CC2)cc1F [Example 736] | > 10000 nM | 0.9 nM | 145 nM | 
12 | CC(C)N1CCC(C(=O)NO)(S(=O)(=O)c2ccc(N3CCC(SCc4ccc(OC(F)(F)F)cc4)CC3)cc2)CC1 [Example 462] | > 10000 nM | 2.9 nM | 80 nM | 
13 | CC1CC(C)CN(C(=O)C2CCN(c3ccc(S(=O)(=O)C4(C(=O)NO)CCN(C(=O)CN5CCN(CCN6CCOCC6)CC5)CC4)cc3)CC2)C1 (stereo not drawn) [Example 306] | > 10000 nM | 60 nM | > 10000 nM | 
14 | O=C(NO)C1(S(=O)(=O)c2ccc(N3CCC(OCc4cccc(Cl)c4)CC3)cc2)CCOCC1 [Example 573] | > 10000 nM | 11.4 nM | 235 nM | 
15 | CC1CC(C)CN(C(=O)C2CCN(c3ccc(S(=O)(=O)C4(C(=O)NO)CCN(C(=O)Cn5ccnc5)CC4)cc3)CC2)C1 (stereo not drawn) [Example 279] | > 10000 nM | 20 nM | 7300 nM | 
16 | COc1cccc(COC2CCC(Oc3ccc(S(=O)(=O)C4(C(=O)NO)CCOCC4)cc3)C2)c1 (stereo not drawn) [Example 694] | > 10000 nM | 3.1 nM | 23.2 nM | 
17 | O=C(NO)C1(S(=O)(=O)c2ccc(N3CCC(OCc4ccc(F)cc4)CC3)cc2)CCN(C2CC2)CC1 [Example 397] | > 10000 nM | 4.4 nM | 70 nM | 
18 | O=C(NO)C1(S(=O)(=O)c2ccc(N3CCC(Oc4ccc(OC(F)(F)F)cc4)CC3)cc2)CCOCC1 [Example 480] | > 10000 nM | 18.6 nM | 155 nM | 
19 | CN1CCCN(C2CCN(c3ccc(S(=O)(=O)C4(C(=O)NO)CCOCC4)cc3)CC2)CC1 [Example 807] | > 10000 nM | 200 nM | 1400 nM | 
20 | CCCCC(=O)C1CCN(c2ccc(S(=O)(=O)C3(C(=O)NO)CCOCC3)cc2)CC1 [Example 757] | > 10000 nM | 3.3 nM | 28.8 nM | 
21 | Cn1c(=O)n(C2CCN(c3ccc(S(=O)(=O)C4(C(=O)NO)CCOCC4)cc3)CC2)c2ccccc21 [Example 589] | > 10000 nM | 70 nM | > 10000 nM | 

Reference: US6750228B1, “Aromatic sulfone hydroxamic acid metalloprotease inhibitor” (priority 1997, dated 2004)
